Experimental data: patent US20210220420A1, “BOTANICAL COMPOSITIONS OF SALVIA O[…] ACTIVITY IN EXTENDING CHR[…] AND METHODS OF USE” (priority 2016, published 2021)

How the values were obtained:
[1] = tested on: Yeast; settings: cited from earlier work
[2] = tested on: C. elegans strain with a pharyngeal GFP tag and a bus-5 mutation; assay: C. elegans chronological lifespan assay versus small molecule AChE inhibitors (Example 4); format: in vivo; settings: 10 mg/ml; for maximum improvement in survival: at day 13 (N350), day 12 (N355, N314), day 9 (N354); for improvement in mean life span: vs control
Protocol: The samples were prepared as a DMSO-based 10 mg/ml stock, aliquoted when necessary and a serial dilution of the stock solution was performed for N92-4. The stock solutions were stored at −20° C.
The assay was carried out using the standard C. elegans strain with a pharyngeal GFP tag and a bus-5 mutation. The GFP tag enables images of the worms to be captured using fluorescence microscopy. […] The worms were raised in the presence of a treatment or control on 12 well NGM agar plates, and were maintained at 20° C. with sufficient food (Escherichia coli strain OP-50).
A proprietary data analysis software package was used to analyse the effects of different active ingredients on aspects of worm ageing. The package was developed using a MATLAB image analysis algorithm which was adapted to recognise and count worms based on their fluorescence intensity above background fluorescence. A living worm is distinguished from a dead worm based on the degree of movement between two consecutive images, which enables the number of living and cumulative number of dead worms to be tracked throughout the experiment. […] A selection of images was manually checked to ensure the software had correctly identified the number of worms.
The statistical analysis output of OASIS provides Log-Rank and Fishers Exact Test results. The Log-Rank result is a non-parametric test which compares two survival functions for the overall lifespan assay, providing a reliable p-value summarising the whole experiment. The Fishers Exact Test calculates the significance of survival function comparisons at multiple specific time points throughout the experiment, rather than for the overall lifespan

SMILES | effect on lifespan [1] | Restricted mean lifespan [2] | maximum improvement in lifespan [2] | maximum improvement in survival [2] | improvement in mean life span [2]
Oc1ccc(C=Cc2cc(O)cc(O)c2)cc1 [Resveratrol] | able to increase lifespan in yeast | – | – | – | –
CCN(C)C(=O)Oc1cccc([C@H](C)N(C)C)c1 [N355, Rivastigmine] | – | 14.04 days | +15.6% | up to +13.3% | +7.9%
COc1ccc2c3c1O[C@H]1C[C@@H](O)C=C[C@@]31CCN(C)C2 [N354, Galantamine] | – | 14.05 days | +15.9% | up to +11.6% | +8%
